Source: ChEMBL document CHEMBL1155899, “Cucurbitane-type triterpenoids from the stems of momordica charantia” (J Nat Prod, 2008)

Each molecule was assayed on SK-HEP1 (assay: Cytotoxicity against human SK-Hep1 cells by MTT assay).
Type: functional, cell-based

Row | Structure (SMILES) | IC50 [µM]
1 | CO[C@H]1C=C2[C@@H](CC[C@H](O)C2(C)C)[C@]2(C)CC[C@]3(C)[C@@H]([C@H](C)C/C=C/C(C)(C)O)CC[C@@]3(C)[C@H]12 | > 100
2 | C[C@H](C/C=C/C(C)(C)O)[C@H]1CC[C@@]2(C)[C@@H]3[C@@H](O)C=C4[C@@H](CC[C@H](O)C4(C)C)[C@]3(C)CC[C@]12C | > 100
3 | CO[C@H]1C=C2[C@@H](CC[C@H](OC(C)=O)C2(C)C)[C@]2(C)CC[C@]3(C)[C@@H]([C@H](C)C/C=C/C(C)(C)O)CC[C@@]3(C)[C@H]12 | > 100
4 | C[C@H](C/C=C/C(C)(C)O)[C@H]1CC[C@@]2(C)[C@@H]3C=CC4=C(CC[C@H](O)C4(C)C)[C@]3(C)CC[C@]12C | > 100
5 | C[C@H](C/C=C/C(C)(C)O)[C@H]1CC[C@@]2(C)[C@@H]3[C@@H](O)C=C4[C@@H](CC[C@H](O)C4(C)C)[C@]3(C=O)CC[C@]12C | 98.3
6 | COC(C)(C)/C=C/C[C@@H](C)[C@H]1CC[C@@]2(C)[C@@H]3[C@@H](O)C=C4[C@@H](CC[C@H](O)C4(C)C)[C@]3(C=O)CC[C@]12C | 91.6
7 | CO[C@H]1C=C2[C@@H](CC[C@H](O)C2(C)C)[C@]2(C)CC[C@]3(C)[C@@H]([C@H](C)C/C=C/C(C)(C)OC)CC[C@@]3(C)[C@H]12 | > 100
8 | CC(C)=CC(=O)C[C@@H](C)[C@H]1CC[C@@]2(C)[C@@H]3C(=O)C=C4[C@@H](CCC(=O)C4(C)C)[C@]3(C)CC[C@]12C | > 100
9 | COc1cc([C@@H]2c3cc4c(cc3[C@@H](O[C@@H]3O[C@@H]5CO[C@@H](C)O[C@H]5[C@H](O)[C@H]3O)[C@H]3COC(=O)[C@H]23)OCO4)cc(OC)c1O [ETOPOSIDE] | 49.6
